Activity calls are given as the source filed them. The calls are words filed in the database; no cut-off is given here.
How the values were obtained:
Format in all cases: functional
[1] = biological target: T1, Muscarinic acetylcholine receptor M1 (Homo sapiens) (UniProt P11229); assay: Positive allosteric modulator activity at human muscarinic M1 receptor up to 30 uM by calcium mobilization assay
T1 sequence (whole entry): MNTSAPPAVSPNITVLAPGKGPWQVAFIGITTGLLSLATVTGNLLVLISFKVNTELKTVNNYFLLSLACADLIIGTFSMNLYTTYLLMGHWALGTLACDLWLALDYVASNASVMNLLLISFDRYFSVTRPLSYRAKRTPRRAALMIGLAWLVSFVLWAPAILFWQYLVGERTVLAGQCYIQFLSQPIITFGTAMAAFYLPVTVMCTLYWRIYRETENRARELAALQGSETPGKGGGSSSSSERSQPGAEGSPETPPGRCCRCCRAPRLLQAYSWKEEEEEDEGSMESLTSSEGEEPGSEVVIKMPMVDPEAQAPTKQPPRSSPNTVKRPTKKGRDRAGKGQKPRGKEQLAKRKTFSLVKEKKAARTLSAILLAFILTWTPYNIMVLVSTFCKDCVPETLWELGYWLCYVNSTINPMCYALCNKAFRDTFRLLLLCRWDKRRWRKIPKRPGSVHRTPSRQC

[2] = biological target: T1, Muscarinic acetylcholine receptor M1 (Homo sapiens); assay: Positive allosteric modulator activity at human muscarinic M1 receptor relative to acetylcholine by calcium mobilization assay; set-up: concentration or dose not given beside the values
[3] = biological target: T2, Muscarinic acetylcholine receptor M1 (Homo sapiens, UniProt P11229); assay: Positive allosteric modulator activity at human muscarinic M1 receptor by calcium mobilization assay
T2 sequence (P11229 whole entry): T1 sequence (whole entry)

[4] = biological target: T1, Muscarinic acetylcholine receptor M1 (Homo sapiens); assay: Positive allosteric modulator activity at human muscarinic M1 receptor assessed as fold shift of acetylcholine concentration curve to the left at 30 uM by calcium mobilization assay relative to untreated acetylcholine control
[5] = biological target: T3, Muscarinic acetylcholine receptor M4 (Homo sapiens) (UniProt P08173); assay: Positive allosteric modulator activity at human muscarinic M4 receptor by calcium mobilization assay
T3 sequence (whole entry): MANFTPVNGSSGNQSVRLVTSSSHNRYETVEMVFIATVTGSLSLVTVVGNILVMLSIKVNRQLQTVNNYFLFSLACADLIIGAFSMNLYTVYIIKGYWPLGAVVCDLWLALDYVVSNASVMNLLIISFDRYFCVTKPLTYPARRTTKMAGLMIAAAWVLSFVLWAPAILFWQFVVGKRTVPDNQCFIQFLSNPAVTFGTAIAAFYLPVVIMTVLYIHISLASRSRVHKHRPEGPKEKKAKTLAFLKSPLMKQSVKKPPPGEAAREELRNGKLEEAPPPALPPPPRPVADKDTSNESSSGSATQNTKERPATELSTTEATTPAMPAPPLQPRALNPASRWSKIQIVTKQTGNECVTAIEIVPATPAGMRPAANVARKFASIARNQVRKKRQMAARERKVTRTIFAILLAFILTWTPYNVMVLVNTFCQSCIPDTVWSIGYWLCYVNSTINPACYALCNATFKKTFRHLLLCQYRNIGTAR

Row | Structure (SMILES) | Activity [1] | Activity [2] | EC50 [3] | further results
1 | Cn1cc(-c2ccc(Cn3c4ccccc4c4nccnc43)c(F)c2)cn1 | inactive | – | – | –
2 | Cn1cc(-c2ccc(Cn3c(=O)ccc4ccccc43)c(F)c2)cn1 | – | 51% | > 10 µM | –
3 | COc1nc2ccccc2n1Cc1ccc(-c2cnn(C)c2)cc1F | inactive | – | – | –
4 | Cn1cc(-c2ccc(CN3c4ccccc4CS3(=O)=O)c(F)c2)cn1 | – | 41% | > 10 µM | –
5 | COC1(C(F)(F)F)C(=O)N(Cc2ccc(-c3cnn(C)c3)cc2F)c2ccccc21 (racemic) | inactive | – | – | –
6 | Cn1cc(-c2ccc(Cn3c(=O)[nH]c4ccccc43)c(F)c2)cn1 | inactive | – | – | –
7 | O=C1N(Cc2ccc(-c3cn[nH]c3)cc2F)c2ccccc2C1(O)C(F)(F)F (racemic) | inactive | – | – | –
8 | Cn1cc(-c2ccc(CN3C(=O)C(F)(F)c4ccccc43)c(F)c2)cn1 | inactive | – | – | –
9 | Cn1cc(-c2ccc(CN3C(=O)C(C)(N)c4ccccc43)c(F)c2)cn1 (racemic) | – | 28% | > 10 µM | –
10 | CC(C)n1cc(-c2ccc(CN3C(=O)C(O)(C(F)(F)F)c4ccccc43)c(F)c2)cn1 (racemic) | inactive | – | – | –
11 | Cn1cc(-c2ccc(CN3C(=O)C(O)(C(F)(F)F)c4ccccc43)c(F)c2)cn1 (centres undefined) | inactive | – | – | –
12 | Cn1cc(-c2ccc(CN3C(=O)C(F)(C(F)(F)F)c4ccccc43)c(F)c2)cn1 (racemic) | – | 25% | > 10 µM | –
13 | CN(C)C1(C)C(=O)N(Cc2ccc(-c3cnn(C)c3)cc2)c2ccccc21 (racemic) | – | 48% | > 10 µM | –
14 | Cn1cc(-c2ccc(CN3C(=O)C(O)(C(F)(F)F)c4ccccc43)cc2)cn1 (racemic) | – | 66% | 4 µM | fold change (FC) [4]: 15.2
15 | Cn1cc(-c2ccc(CN3C(=O)C(O)(C(F)(F)F)c4ccccc43)c(Cl)c2)cn1 (racemic) | – | 29% | > 10 µM | –
16 | CCn1cc(-c2ccc(CN3C(=O)C(O)(C(F)(F)F)c4ccccc43)c(F)c2)cn1 (racemic) | – | 37% | 3.3 µM | –
17 | Cn1cc(-c2ccc(CN3C(=O)C(O)(C(F)(F)F)c4ccccc43)c(F)c2)cn1 (stereo in doubt; 23h) | – | 57% | – | fold change (FC) [4]: 12
18 | Cn1cc(-c2ccc(CN3C(=O)C(O)(C(F)(F)F)c4ccccc43)c(F)c2)cn1 (racemic) | – | 51% | – | fold change (FC) [4]: 7.4
19 | Cn1cc(-c2ccc(CN3CC(c4ccccc4)CC3=O)c(F)c2)cn1 (centres undefined) | inactive | – | – | –
20 | Cn1cc(-c2ccc(Cn3c4ccccc4c4cccnc43)c(F)c2)cn1 | inactive | – | – | –
21 | CCCn1cc(-c2ccc(CN3C(=O)C(O)(C(F)(F)F)c4ccccc43)c(F)c2)cn1 (racemic) | inactive | – | – | –
22 | Cn1cc(-c2ccc(CN3C(=O)C(O)(CF)c4ccccc43)c(F)c2)cn1 (racemic) | – | 59% | > 10 µM | fold change (FC) [4]: 8
23 | Cn1cc(-c2ccc(Cn3ccccc3=O)c(F)c2)cn1 | inactive | – | – | –
24 | Cn1cc(-c2ccc(CN3CCSc4ccccc43)c(F)c2)cn1 | inactive | – | – | –
25 | Cn1cc(-c2ccc(CN3C(=O)c4cccc5cccc3c45)c(F)c2)cn1 | inactive | – | – | –
26 | CC(=O)N(Cc1ccc(-c2cnn(C)c2)cc1F)c1ccccc1 | inactive | – | – | –

Continued, in another order:

Row | Activity [1] | Activity [2] | EC50 [3] | Structure (SMILES) | further results
27 | – | 45% | 0.6 µM | Cn1cc(-c2ccc(CN3C(=O)C(=O)c4ccccc43)c(F)c2)cn1 | fold change (FC) [4]: 2.7
28 | – | 46% | > 10 µM | Cn1cc(-c2ccc(CN3C(=O)C[S+]([O-])c4ccccc43)c(F)c2)cn1 (centres undefined) | –
29 | – | 50% | 1.3 µM | Cn1cc(-c2ccc(CN3C(=O)C(N)c4ccccc43)c(F)c2)cn1 (racemic) | –
30 | – | 36% | > 10 µM | Cn1cc(-c2ccc(CN3C(=O)CS(=O)(=O)c4ccccc43)c(F)c2)cn1 | –
31 | – | 53% | > 10 µM | Cn1cc(-c2ccc(CN3C(=O)NCc4ccccc43)c(F)c2)cn1 | –
32 | – | 64% | 2.4 µM | Cn1cc(-c2ccc(CN3C(=O)Cc4ccccc43)c(F)c2)cn1 | Activity [5]: Active; fold change (FC) [4]: 27.2
33 | – | 30% | 3.2 µM | Cn1cc(-c2ccc(CN3C(=O)CSc4ccccc43)c(F)c2)cn1 | –
34 | – | 53% | > 10 µM | CC1C(=O)N(Cc2ccc(-c3cnn(C)c3)cc2F)c2ccccc21 (racemic) | –
35 | inactive | – | – | Cn1cc(-c2ccc(CN3CCc4ccccc43)c(F)c2)cn1 | –
36 | inactive | – | – | Cn1cc(-c2ccc(CN3C(=O)CCCc4ccccc43)c(F)c2)cn1 | –
37 | – | 49% | > 10 µM | Cn1cc(-c2ccc(CN3C(=O)C(C)(O)c4ccccc43)c(F)c2)cn1 (racemic) | fold change (FC) [4]: 6.5
38 | – | 52% | 5.2 µM | Cn1cc(-c2ccc(CN3C(=O)COc4ccccc43)c(F)c2)cn1 | –
39 | – | 62% | > 10 µM | Cn1cc(-c2ccc(CN3C(=O)OCc4ccccc43)c(F)c2)cn1 | –
40 | – | 44% | 5.6 µM | Cn1cc(-c2ccc(CN3C(=O)CCc4ccccc43)c(F)c2)cn1 | –
